Consider 25 compounds from US10736883B2, “Triazole furan compounds as agonists of the APJ receptor” (AMGEN INC., priority 2016, dated 2020).

The experiment concerns the target APJ receptor (Homo sapiens (Human), UniProt P35414). Briefly: [35S]GTPγS binding assay on membranes from CHO cells stably expressing human APJ receptor. The experiment is classed as biochemical. The note with it: membranes of CHO cells stably expressing human APJ receptor, means of several independent experiments, read-out: Activity hAPJ SPA EC50 IP. The procedure, abridged:
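Membranes from CHO cells stably expressing human APJ were incubated with 0.2 nM [35S]GTPγS and ligands for 90 min at RT in 20 mM HEPES pH 7.5, 5 mM MgCl2, 200 mM NaCl, 3 μM GDP, 0.1% BSA with WGA PS beads. Nonspecific binding was set with 100 μM GTPγS. EC50 came from non-linear regression.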

Chain of APJ receptor (P35414 whole entry): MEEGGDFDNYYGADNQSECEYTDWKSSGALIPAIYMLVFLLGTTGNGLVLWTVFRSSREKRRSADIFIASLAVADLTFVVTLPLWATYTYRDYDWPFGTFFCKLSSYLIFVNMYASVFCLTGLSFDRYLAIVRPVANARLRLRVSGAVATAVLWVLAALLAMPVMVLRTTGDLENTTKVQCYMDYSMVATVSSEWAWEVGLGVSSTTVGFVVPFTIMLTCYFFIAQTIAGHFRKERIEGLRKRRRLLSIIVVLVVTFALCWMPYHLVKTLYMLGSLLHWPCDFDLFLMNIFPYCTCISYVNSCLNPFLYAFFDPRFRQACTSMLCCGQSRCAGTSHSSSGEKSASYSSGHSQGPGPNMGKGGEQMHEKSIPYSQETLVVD

Turning to `COc1cccc(OC)c1-n1c(NS(=O)(=O)c2cccc([C@@H](C)O)c2)nnc1-c1ccc(C)o1` (single isomer, unassigned) [Example 411.0, (R)-N-(4-(2,6-dimethoxyphenyl)-5-(5-methylfuran-2-yl)-4H-1,2,4-triazol-3-yl)-3-(1-hydroxyethyl)benzenesulfonamide or (S)-N-(4-(2,6-dimethoxyphenyl)-5-(5-methylfuran-2-yl)-4H-1,2,4-triazol-3-yl)-3-(1-hydroxyethyl)benzenesulfonamide], the EC50 worked out at 32 nM.

Turning to `COc1cccc(OC)c1-n1c(NS(=O)(=O)c2cccc([C@H](C)O)c2)nnc1-c1ccc(C)o1` (single isomer, unassigned) [Example 410.0, (R)-N-(4-(2,6-dimethoxyphenyl)-5-(5-methylfuran-2-yl)-4H-1,2,4-triazol-3-yl)-3-(1-hydroxyethyl)benzenesulfonamide or (S)-N-(4-(2,6-dimethoxyphenyl)-5-(5-methylfuran-2-yl)-4H-1,2,4-triazol-3-yl)-3-(1-hydroxyethyl)benzenesulfonamide], the concentration for a half-maximal effect (EC50) amounted to 11 nM.

For `COc1cccc(OC)c1-n1c(NS(=O)(=O)[C@H](C)[C@H](O)c2cccc(Cl)n2)nnc1-c1ccc(C)o1` (stereo in doubt) [Example 85.0], the half-maximal effective concentration (EC50) was determined as 0.17 nM.

With `C[C@@H](Cc1ncc(F)cn1)S(=O)(=O)Nc1nnc(-c2ccco2)n1-c1ccccc1F` (racemic) [Example 312.0, (2R)—N-(4-(2-Fluorophenyl)-5-(2-furanyl)-4H-1,2,4-triazol-3-yl)-1-(5-fluoro-2-pyrimidinyl)-2-propanesulfonamide and (2S)—N-(4-(2-fluorophenyl)-5-(2-furanyl)-4H-1,2,4-triazol-3-yl)-1-(5-fluoro-2-pyrimidinyl)-2-propanesulfonamide], the EC50 turned out to be 210 nM.

As to `COCCn1c(NS(=O)(=O)[C@@H](C)[C@H](OC)c2ncc(Cl)cn2)nnc1-c1ccc(C)o1` [Example 386.0, (1R,2S)-1-(5-chloropyrimidin-2-yl)-1-methoxy-N-(4-(2-methoxyethyl)-5-(5-methylfuran-2-yl)-4H-1,2,4-triazol-3-yl)propane-2-sulfonamide], the EC50 is 37 nM.

As for `COCC[C@@H]([C@H](C)c1ncc(F)cn1)S(=O)(=O)Nc1nnc(-c2ccc(C)o2)n1-c1c(OC)cccc1OC` (single isomer, unassigned) [Example 67.0], the half-maximal effective concentration (EC50) is 0.36 nM.

As to `COc1cccc(OC)c1-n1c(NS(=O)(=O)[C@@H](C)[C@](C)(N)c2ncc(F)cn2)nnc1-c1ccc(C)o1` (single isomer, unassigned) [Example 243.0], the half-maximal effective concentration (EC50) was found to be 0.87 nM.

Consider `COc1cnc(N2C[C@H](O)C[C@H](S(=O)(=O)Nc3nnc(-c4ccc(C)o4)n3-c3c(OC)cccc3OC)C2)nc1` (racemic) [Example 335.0, (3S,5R)—N-(4-(2,6-Dimethoxyphenyl)-5-(5-methylfuran-2-yl)-4H-1,2,4-triazol-3-yl)-5-hydroxy-1-(5-methoxypyrimidin-2-yl)piperidine-3-sulfonamide and (3R,5S)—N-(4-(2,6-dimethoxyphenyl)-5-(5-methylfuran-2-yl)-4H-1,2,4-triazol-3-yl)-5-hydroxy-1-(5-methoxypyrimidin-2-yl)piperidine-3-sulfonamide], for which the concentration giving a half-maximal response (EC50) was 0.52 nM.

As to `COCC[C@@H]([C@H](C)c1ncc(F)cn1)S(=O)(=O)Nc1nnc(-c2ccc(C)o2)n1-c1c(OC)cccc1OC` (racemic) [Example 74.0], the concentration giving a half-maximal response (EC50) was 0.54 nM.

For `COc1cccc(OC)c1-n1c(NS(=O)(=O)[C@H](C)CN2C(=O)CCC[C@]2(C)C#N)nnc1-c1ccco1` (single isomer, unassigned) [Example 342.0], the 50% effective concentration (EC50) worked out at 121 nM.

Regarding `COc1cccc(OC)c1-n1c(NS(=O)(=O)[C@H](C)[C@@H](O)c2ncc(F)cn2)nnc1-c1ccc(C)o1` [Example 211.0, (1S,2R)-N-(4-(2,6-dimethoxyphenyl)-5-(5-methylfuran-2-yl)-4H-1,2,4-triazol-3-yl)-1-(5-fluoropyrimidin-2-yl)-1-hydroxypropane-2-sulfonamide], the 50% effective concentration (EC50) is 4.1 nM.

`COc1cccc(OC)c1-n1c(NS(=O)(=O)CCN2C(=O)[C@H](C)C[C@H]2C)nnc1-c1ccco1` (single isomer, unassigned) [Example 175.0]: the EC50 turned out to be 1.9 nM.

As to `COc1cccc(OC)c1-n1c(NS(=O)(=O)[C@@H](C)[C@H](O)c2ccc(Cl)cc2S(C)(=O)=O)nnc1-c1ccc(C)o1` (single isomer, unassigned) [Example 157.0, (1R,2S)-1-(4-Chloro-2-(methylsulfonyl)phenyl)-N-(4-(2,6-dimethoxyphenyl)-5-(5-methyl-2-furanyl)-4H-1,2,4-triazol-3-yl)-1-hydroxy-2-propanesulfonamide or (1S,2R)-1-(4-chloro-2-(methylsulfonyl)phenyl)-N-(4-(2,6-dimethoxyphenyl)-5-(5-methyl-2-furanyl)-4H-1,2,4-triazol-3-yl)-1-hydroxy-2-propanesulfonamide], the EC50 was 0.39 nM.

Take `COc1cccc(OC)c1-n1c(NS(=O)(=O)[C@@H](C)[C@H](O)c2cn(C)cn2)nnc1-c1ccc(C)o1` (single isomer, unassigned) [Example 273.0, (1R,2S)—N-(4-(2,6-Dimethoxyphenyl)-5-(5-methyl-2-furanyl)-4H-1,2,4-triazol-3-yl)-1-hydroxy-1-(1-methyl-1H-imidazol-4-yl)-2-propanesulfonamide or (1S,2R)—N-(4-(2,6-dimethoxyphenyl)-5-(5-methyl-2-furanyl)-4H-1,2,4-triazol-3-yl)-1-hydroxy-1-(1-methyl-1H-imidazol-4-yl)-2-propanesulfonamide]: the EC50 came out at 0.72 nM.

As for `CO[C@H](c1ncc(Cl)cn1)[C@H](C)S(=O)(=O)Nc1nnc(-c2ccc(C)o2)n1[C@@H]1CCCOC1` [Example 391.0, (1R,2S)-1-(5-chloropyrimidin-2-yl)-1-methoxy-N-(5-(5-methylfuran-2-yl)-4-((R)-tetrahydro-2H-pyran-3-yl)-4H-1,2,4-triazol-3-yl)propane-2-sulfonamide], the EC50 came out at 8.4 nM.

`COc1cccc(OC)c1-n1c(NS(=O)(=O)[C@H](C)[C@H](O)c2cccc3nccn23)nnc1-c1ccc(C)o1` (racemic) [Example 306.0, (1R,2R)—N-(4-(2,6-Dimethoxyphenyl)-5-(5-methyl-2-furanyl)-4H-1,2,4-triazol-3-yl)-1-hydroxy-1-imidazo[1,2-a]pyridin-5-yl-2-propanesulfonamide and (1S,2S)—N-(4-(2,6-dimethoxyphenyl)-5-(5-methyl-2-furanyl)-4H-1,2,4-triazol-3-yl)-1-hydroxy-1-imidazo[1,2-a]pyridin-5-yl-2-propanesulfonamide]: the EC50 amounted to 18 nM.

In the case of `COc1cccc(OC)c1-n1c(NS(=O)(=O)[C@@H](C)[C@](C)(F)c2ncc(C#N)cn2)nnc1-c1ccc(C)o1` (single isomer, unassigned) [Example 230.0], the 50% effective concentration (EC50) was found to be 0.41 nM.

Regarding `COc1cccc(OC)c1-n1c(NS(=O)(=O)[C@H](C)Cc2ccncn2)nnc1-c1ccco1` (single isomer, unassigned) [Example 46.0, (2R)—N-(4-(2,6-dimethoxyphenyl)-5-(2-furanyl)-4H-1,2,4-triazol-3-yl)-1-(4-pyrimidinyl)-2-propanesulfonamide or (2S)—N-(4-(2,6-dimethoxyphenyl)-5-(2-furanyl)-4H-1,2,4-triazol-3-yl)-1-(4-pyrimidinyl)-2-propanesulfonamide], the EC50 came out at 300 nM.

For the compound `CCO[C@H](c1ncc(C)cn1)[C@H](C)S(=O)(=O)Nc1nnc(-c2ccc(C)o2)n1-c1c(OC)cccc1OC` (single isomer, unassigned) [Example 118.0], the half-maximal effective concentration (EC50) is 0.084 nM.

As for `COc1cccc(OC)c1-n1c(NS(=O)(=O)c2cccc(CO)c2)nnc1-c1ccc(C)o1` [Example 409.0, N-(4-(2,6-dimethoxyphenyl)-5-(5-methyl-2-furanyl)-4H-1,2,4-triazol-3-yl)-3-(hydroxymethyl)benzenesulfonamide], the half-maximal effective concentration (EC50) is 43 nM.

`COc1cccc(OC)c1-n1c(NS(=O)(=O)CCc2ncc(Cl)cc2CCN2CC[C@H](O)C2)nnc1-c1ccco1` [Example 238.0, 2-(5-Chloro-3-(2-((3S)-3-hydroxy-1-pyrrolidinyl)ethyl)-2-pyridinyl)-N-(4-(2,6-dimethoxyphenyl)-5-(2-furanyl)-4H-1,2,4-triazol-3-yl)ethanesulfonamide]: the EC50 was found to be 0.59 nM.

Consider `COc1cccc(OC)c1-n1c(NS(=O)(=O)CCN2C(=O)[C@@H](C)C[C@]2(C)C#N)nnc1-c1ccco1` (single isomer, unassigned) [Example 168.0], for which the EC50 came out at 0.97 nM.

`COc1ccccc1-n1c(NS(=O)(=O)[C@@H](C)Cc2ncc(F)cn2)nnc1-c1ccc(C)o1` (racemic) [Example 295.0, (2S)-1-(5-fluoro-2-pyrimidinyl)-N-(4-(2-methoxyphenyl)-5-(5-methyl-2-furanyl)-4H-1,2,4-triazol-3-yl)-2-propanesulfonamide and (2R)-1-(5-fluoro-2-pyrimidinyl)-N-(4-(2-methoxyphenyl)-5-(5-methyl-2-furanyl)-4H-1,2,4-triazol-3-yl)-2-propanesulfonamide]: the 50% effective concentration (EC50) is 6.1 nM.

With `COc1cccc(OC)c1-n1c(NS(=O)(=O)[C@H](C)[C@@H](O)c2ccc(C)cn2)nnc1-c1ccc(C)o1` (single isomer, unassigned) [Example 65.0], the half-maximal effective concentration (EC50) turned out to be 0.31 nM.

For the compound `COc1cccc(OC)c1-n1c(NS(=O)(=O)C[C@@](C)(F)c2ncc(C#N)cn2)nnc1-c1ccc(C)o1` (racemic) [Example 229.0, (2S)-2-(5-Cyano-2-pyrimidinyl)-N-(4-(2,6-dimethoxyphenyl)-5-(5-methyl-2-furanyl)-4H-1,2,4-triazol-3-yl)-2-fluoro-1-propanesulfonamide and (2R)-2-(5-cyano-2-pyrimidinyl)-N-(4-(2,6-dimethoxyphenyl)-5-(5-methyl-2-furanyl)-4H-1,2,4-triazol-3-yl)-2-fluoro-1-propanesulfonamide], the EC50 is 0.39 nM.
